In patent US10028971B2, “Compositions and methods for treating psychiatric disorders” (GOSFORTH CENTRE (HOLDINGS) PTY LTD., priority 2008, dated 2018):
Like-named read-outs stand apart in the source and are kept apart here.

Legend:
adults with ADHD = test system: adults with ADHD
Description: In the clinical setting a number of adults with ADHD experienced a combination therapy of stimulant medication (dexamphetamine) in combination with sodium valproate (VPA). The initial dosages used were from 15 to 70 mg/day of dexamphetamine and from 100 to 700 mg/day of VPA (Epilim) (=approximately 2 to 10 mg/kg/day).
The determination of the dose for the dexamphetamine was undertaken in a clinical sensitive open label manner. The dose was titrated upwards dependent on the clinical response and the freedom from side-effects. The dose range was between 15 and 70 mg a day. The frequency of the dosing also varied dependent upon the clinical response. The usual dose interval was between two to four hours. This dosing adjustment took place prior to the commencement of the sodium valproate. The sodium valproate medication was initiated once a day at 50 mg tablet or elixir and titrated upwards dependent on response, but not more than one increase every three days. The dose was given as a once or twice a day regime. During the titration phase, if clinically possible, no other adjustments to the pharmacotherapy were undertaken.

[1] = test system: individuals with dysthymia; test: Treatment of dysthymia, clinical observation; format: in vivo, human; conditions: person, PTSD, treated ADHD, sodium valproate 100 mg a day
Text: The inventor has noted in the clinical setting that individuals suffering with symptoms consistent with a diagnosis of dysthymia, experience a significant abatement from their negative and sometimes intrusive thought patterns on commencement of a low dose anti-epileptic drug. The inventor has also noted in the clinic that the beneficial effects that are noted on commencement of this combination can be further enhanced synergistically, by the use of a psycho-stimulant. These individuals may or may not meet the full criteria for a DSM IV diagnosis consistent with ADHD.
A number of individuals with symptoms of dysthymia report that the depression has been present since adolescence, and finally present in the clinic, after an acute major depressive episode. They are able to achieve a partial resolution from the symptoms of depression with appropriate pharmacological and psychological treatment. Unfortunately, their negative thought patterns are more persistent and can be misinterpreted as a failure to adequately respond to antidepressant therapy. In actuality these symptoms predate the acute episode, and it is not surprising therefore that they don't abate following treatment. […] These subsequent outcomes lead to an improvement in general interpersonal functioning, which in itself contributes to psychosocial stability. […]

[2] = test system: individuals with developmental dyspraxia / poor coordination; test: Treatment of developmental dyspraxia, clinical observation; format: in vivo, human; conditions: person
Text: Many of the individuals treated at this clinic, with a diagnosis of ADHD and/or pervasive development disorder such Asperger's Syndrome or autism also present with symptoms consistent with a diagnosis of a developmental coordination disorder. They are often described as ‘unco’ (unco-ordinated) by their peers and experience victimization, poor self-esteem and frustration as a consequence of their poor coordination. […] Individuals have described a sense of having more time to coordinate movements and to understand and integrate their own activity appropriately within a team sport such as soccer, which has previously eluded them. Individuals have felt frustration at being able to practise repeatedly an activity or skill only to be unable to put it into practice when required, within the play of a match. It is proposed that individuals were previously unable to process and plan their own coordination but remain aware of the general activity in which they were participating.

[3] = test system: patients with substance addiction; test: Treatment of addictions, clinical observation; format: in vivo, human; conditions: for clinical outcome (case): person
Text: Addiction to amphetamines poses a number of unique challenges.

[4] = test system: individuals with MCI or dementia; test: Mild cognitive impairment and dementia, clinical cases (Developmental Eye Movement test, Alzheimer's Quick Test); format: in vivo, human; conditions: person
Text: A married person with a history of good cognitive functioning until last 4-5 yrs when noted by both their spouse and themself to becoming increasingly socially withdrawn primarily because of the difficulty in listening without distraction during social interaction, no known childhood or adult history of prior attentional or impulsive disorders. It has been clinically observed by the inventor that individuals treated with low dose antiepileptic were enhanced in their ability to discriminate irrelevant from the relevant sound was enhanced. […] On ceasing the medication there was an initial improvement again over the preceding 3 to 7 days followed by a loss of the therapeutic effects and returned to their pre-medication function. On the ressumption of the 12.5 mg phenytoin there was a return of the improved function. On this second occasion they were more aware of the benefits and also the gradual return of the detrimental clinic effects. During the clinical assessment it was noted that they had more flexibility in their conversation and more natural use of non-verbal cues, there was also enhancement of their egocentric gaze. […] These benefits were also noted by their spouse. […] Again these medications were ceased resulting in a loss of associated benefits. With each trial of medication they became more apparent to the patient and their spouse of the benefits of the therapy. They attempted whilst not taking the medication to communicate and follow the conversation in a way that they had been able to whilst on treatment. They found when attempting to do so they became mentally exhausted and unable to sustain the effort required for the interaction. The improvements noted clinically and also recorded using the Developmental Eye Movement test and a measure of parietal function the Alzheimer's Quick Test. Married person diagnosed with fronto-temporal dementia. they had been assessed by neuropsychologist, and geriatrician and psychiatrist to confirm this diagnosis. […] They then relied on others to make decisions for […]. They had gradually become socially disengaged finding such interactions distressing and demanding. […] Despite ongoing difficulties of word finding they were able to socially interact more spontaneously than they had done for many years. And have confidence in areas of conversation that they previously would have avoided. […] On two occasions the medication was withdrawn and then reintroduced, due to the experimental nature of treatment and concern that there might be a significant placebo effect. […] Following the subsequent reduction there was a return of the improvement previously noted.

[5] = test system: individual with a history of a head injury; test: Head injury with acquired ADHD syndrome, clinical case; format: in vivo, human; conditions: person
Text: A person, no history of ADHD in childhood. Involved in a serious motor vehicle accident the with a depressed skull fracture and frontal lobe involvement. Subsequent history consistent with a acquired syndrome of ADHD. Subsequent development of co-morbid diagnoses included in alcohol dependence, pathological gambling and major depression.

[6] = test system: mood stabilisation or epileptic symptoms or events; conditions: adults, cited from earlier work

CCCC(CCC)C(=O)O.[Na] [sodium valproate, sodium di-n-propylacetic acid]
clinical outcome (case) (adults with ADHD; adult female, sodium valproate maximum 150 mg added to methylphenidate): Improvement | group outcome of combination therapy (adults with ADHD; adults with ADHD, Methylphenidate 40 mg/d, Valproate 100 mg/d, Phenytoin 50 mg/d): successfully treated | clinical assessment under combination therapy (adults with ADHD; adults with ADHD, Valproate 50-300 mg/d with Dexamphetamine 20-75 mg/d): overall improvement in psychosocial functioning | group outcome of combination therapy (adults with ADHD; adults with ADHD, dexamphetamine 20-45 mg/d, Valproate 100-400 mg/d, Phenytoin 12.5-50 mg/d): successfully treated | group outcome of combination therapy (adults with ADHD; adults with ADHD, median 40 mg/d Dexamphetamine, 120 mg/d Sodium Valproate, 25 mg/d Topiramate): successfully treated | group outcome of combination therapy (adults with ADHD; adults with ADHD, methylphenidate 30-125 mg/d with Valproate 50-200 mg/d): successfully treated | effect of higher doses (adults with ADHD; human, in vivo): general cognitive slowing and the resultant loss of efficacy | clinical outcome (case) (adults with ADHD; person, ADHD, anorexia nervosa, borderline personality disorder, sodium valproate 200 mg with dexamphetamine): responded | clinical outcome (case) (adults with ADHD; person, ADHD, low dose sodium valproate 50 mg added to psycho stimulant): improvement in their egocentric gaze and improved cognition | clinical outcome (case) (adults with ADHD; person, ADHD, sodium valproate 100 mg a day added to dexamphetamine 40 mg): improvement with more organised thoughts | self-described improvement in ability to study (adults with ADHD; person, ADHD, sodium valproate (50 mg) added to psycho stimulant): 50% | clinical outcome (case) (adults with ADHD; person, 100 mg sodium valproate added to methylphenidate 55 mg): enhanced ability to maintain conversation, improved cognition, improved assertiveness and self organisation | clinical outcome (case) (adults with ADHD; person, sodium valproate (up to 500 mg a day) added to dexamphetamine 20 mg): Further benefit | clinical outcome (case) (adults with ADHD; person, sodium valproate maximum 400 mg added to dexamphetamine): good effect | clinical outcome (case) (adults with ADHD; person, valproate dose reached 150 mg, with psycho stimulant): benefits were lost | clinical outcome (case) [1]: could read without distraction | clinical outcome (case) ([2]; ADHD, dexamphetamine 25 mg daily augmented with atomexetine 60 mg and sodium valproate 150 mg): Significant improvement in psychosocial functioning | clinical outcome (case) ([2]; Sodium valproate 50 mg increased to 100 mg with stimulant): improved coordination, improved school attendance, improved cognition and report grades | clinical outcome (case) ([3]; methamphetamine use, 100 mg/d Valproate with 50 mg/d dexamphetamine): robust improvement in attention and concentration abilities | clinical outcome (case) ([3]; sodium valproate 50 mg increased to 200 mg with dexamphetamine): reduced dependence on marijuana and ceased alcohol consumption | clinical outcome ([3]; two patients, ADHD and methamphetamine addiction, Valproate 50 to 100 mg/d with 50 mg/d dexamphetamine): responded well | clinical outcome (case) ([4]; sodium valproate 40 mg): enhanced ability to follow the train of conversation | clinical outcome (case) ([4]; sodium valproate 80 mg): loss of these benefits | clinical outcome (case) ([5]; sodium valproate 150 mg added to dexamphetamine 50 mg): Improved social interaction and egocentric eye gaze | clinical outcome (case) ([5]; sodium valproate above 150 mg): loss of benefit | dose range in which control of symptoms of mania occurs ([6]; mania (e.g. bipolar disorder), Epilim product information (Sanofi-Aventis)): 1,000 to 2,000 mg/day | dose range in which control of symptoms of mania occurs ([6]; mania, Epilim product information): 20 to 30 mg/kg/day
